Patent US12384769B2, “Heteroaryl-substituted aminoalkyl azole compounds as pesticides” (Elanco Animal Health GmbH, priority 2019, dated 2025)

Experiments:
Assay type in all cases: in vivo
Spodoptera frugiperda = Spodoptera frugiperda spray test; details: in Zea mays, 168 h, read-out: activity (mortality)
Summary of the method: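 Compound in acetone/DMF, diluted in water with 1000 ppm alkylarylpolyglycol ether emulsifier, sprayed on maize leaf sections. Dried leaves infested with fall armyworm larvae; % mortality after 7 days (100% = all killed, 0% = none).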

Ctenocephalides felis [1] = assay: Ctenocephalides felis oral test (CTECFE); details: 48 h, 100 ppm in cattle blood, after 2 days
Summary of the method: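 About 20 adult unfed fleas fed through parafilm on cattle blood held at 37° C and dosed with compound from a DMSO concentrate; flea chamber at room temperature. Percent mortality scored after 2 days.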

Myzus persicae [2] = assay: Myzus persicae oral test; details: 120 h, after 5 days
Description: Solvent: 100 parts by weight acetone
Afterwards the plates are sealed with parafilm through which a mixed population of the green peach aphid (Myzus persicae) can suck on the compound preparation.
(§1) After 5 days mortality in % is determined. 100% means all aphids have been killed and 0% means none of the aphids have been killed.

[3] = test system: Rhipicephalus microplus (strain Parkhurst, resistant against synthetic pyrethroids); assay: Rhipicephalus microplus in-vitro contact test, larval cattle tick (BOOPMI Contact); details: 5 μg/cm^2 (=500 g/ha), after 48 hours, read-out: activity (efficacy, larvae dead or moribund)
Summary of the method: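 Glass tubes coated with compound in acetone (900 ppm giving 5 μg/cm²), dried, then loaded with 20-50 pyrethroid-resistant Parkhurst larvae and held at 27 °C, 85% RH. After 48 h negative geotaxis is scored; efficacy in % dead or moribund larvae.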

[4] = test system: Anopheles funestus strain FUMOZ-R; assay: Anopheles funestus test (ANPHFU surface treatment & contact assay); details: 30 minutes exposure, 24 hours after contact, read-out: efficacy (mortality); for mortality at 20 mg/m2: surface concentration 20 mg/m^2, glazed tile
Description: Anopheles funestus Test (ANPHFU Surface Treatment & Contact Assay)
(§2) Solvent: Aceton+2000 ppm rapeseed oil methyl ester (RME)
(§3) In order to produce a sufficient, active ingredient containing solution it is necessary to solve the test compound in the solvent-mix (acetone at 2 mg/mL/RME 2000 ppm). This solution is pipetted onto a glazed tile and after evaporation of the acetone, adult mosquitoes of the species Anopheles funestus strain FUMOZ-R (Hunt et al., Med. Vet. Entomol. 2005 September; 19(3): 271-275) are placed onto the dried surface. The exposure time is 30 minutes.
(§4) Mortality in percent (%) is determined 24 hours after contact of the insects to the treated surface. 100% mortality means that all tested insects are dead, whereas 0% means that no insect died.

[5] = test system: Aedes aegypti strain MONHEIM; assay: Aedes aegypti test (AEDSAE surface treatment & contact assay); details: 30 minutes exposure, 24 hours after contact, read-out: efficacy (mortality); for mortality at 20 mg/m2: surface concentration 20 mg/m^2, glazed tile
Description: Aedes aegypti Test (AEDSAE Surface Treatment & Contact Assay)
as §2
as §3, with “Aedes aegypti” for “Anopheles funestus”, “MONHEIM” for “FUMOZ-R (Hunt et al., Med. Vet. Entomol. 2005 September; 19(3): 271-275)”
as §4

[6] = test system: Culex quinquefasciatus strain P00; assay: Culex quinquefasciatus test (CULXFA surface treatment & contact assay); details: surface concentration 20 mg/m^2, glazed tile, 30 minutes exposure, 24 hours after contact, read-out: efficacy (mortality)
Description: Culex quinquefasciatus Test (CULXFA Surface Treatment & Contact Assay)
as §2
as §3, with “2 000” for “2000”, “Culex quinquefasciatus” for “Anopheles funestus”, “P00” for “FUMOZ-R (Hunt et al., Med. Vet. Entomol. 2005 September; 19(3): 271-275)”
as §4

Diabrotica balteata = Diabrotica balteata spray test; details: 168 h, wheat seeds, after 7 days, read-out: activity (efficacy, seedlings grown); for pest or weed control at 160 µg/disc, 500 g/ha: 500 g/ha (=160 μg/well)
Summary of the method: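 Germinated wheat seedlings (5 per well, on agar) sprayed with compound in acetone/DMF with emulsifier-containing water, then infested with 10–20 Diabrotica balteata larvae. Efficacy (%) scored after 7 days from seedling growth: 100% = growth as untreated uninfested control, 0% = no seedlings grown.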

Boophilus microplus = Boophilus microplus injection test (BOOPMI Injection); details: Rhipicephalus microplus, 168 h, injection into adult engorged female ticks, egg deposition after 7 days, read-out: activity (efficacy, infertile eggs); for pest or weed control at 0.004 mg: 4 μg/animal; for pest or weed control at 0.02 mg: 20 μg/animal
Summary of the method: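 Adult engorged female ticks (5 per group) injected into the abdomen with 1 μL compound in DMSO, then held in a climate chamber. Fertile egg deposition scored after 7 days, with unclear eggs kept until hatching (~42 days). Efficacy 100% = all eggs infertile, 0% = all fertile.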

Ctenocephalides felis [7] = assay: Ctenocephalides felis in-vitro contact test, adult cat flea; details: 5 μg/cm^2 (=500 g/ha), after 48 hours, read-out: activity (efficacy, fleas dead or moribund)
Summary of the method: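 Acetone solutions coated onto inner walls of glass tubes; 900 ppm gives 5 μg/cm^2. After drying, 5-10 adult Ctenocephalides felis per tube held 48 h at room temperature. Fleas then placed on 45-50° C. plate for up to 5 min; those unable to climb away scored dead or moribund, efficacy as % dead/moribund.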

Nilaparvata lugens = Nilaparvata lugens spray test; details: 96 h, rice plants, after 4 days
Description: Nilaparvata lugens—Spray Test
(§5) Solvent: 78.0 parts by weight of acetone • • 1.5 parts by weight of dimethylformamide
(§6) Emulsifier: alkylarylpolyglycol ether
(§7) To produce a suitable preparation of active compound, 1 part by weight of active compound is mixed with the stated amount of solvents and is diluted with water, containing an emulsifier concentration of 1000 ppm, to the desired concentration. Further test concentrations are prepared by dilution with emulsifier containing water.
Rice plants (Oryza sativa) are sprayed with a preparation of the active ingredient of the desired concentration and the plants are infested with the brown planthopper (Nilaparvata lugens).
After 4 days mortality in % is determined. 100% means all planthoppers have been killed and 0% means none of the planthoppers have been killed.

[8] = test system: Musca domestica strain WHO-N; assay: Musca domestica test (MUSCDO surface treatment & contact assay); details: 30 minutes exposure, 24 hours after contact, read-out: efficacy (mortality)
Description: Musca domestica Test (MUSCDO Surface Treatment & Contact Assay)
as §2
as §3, with “flies” for “mosquitoes”, “Musca domestica” for “Anopheles funestus”, “WHO—N” for “FUMOZ-R (Hunt et al., Med. Vet. Entomol. 2005 September; 19(3): 271-275)”
as §4

Nezara viridula = Nezara viridula spray test; details: 96 h, barley plants, after 4 days
Description: Nezara viridula—Spray Test
as §5, §6
as §7, with “solvent,” for “solvents”, “and the concentrate” for “and”
Barley plants (Hordeum vulgare) are sprayed with a test solution containing the desired concentration of the active ingredient and are infested with larvae of the southern green stink bug (Nezara viridula).
After 4 days, mortality in % is determined. 100% means all the stink bugs have been killed; 0% means none of the stink bugs have been killed.

Tetranychus urticae = Tetranychus urticae spray test OP-resistant; details: foliar, 144 h, French bean leaf disks, after 6 days
Description: Tetranychus urticae—Spray Test OP-Resistant
(§8) Solvent: 78.0 parts by weight acetone • 1.5 parts by weight dimethylformamide
as §6, §7
French bean (Phaseolus vulgaris) leaf disks infected with all instars of the two spotted spidermite (Tetranychus urticae) are sprayed with a preparation of the active ingredient of the desired concentration.
After 6 days mortality in % is determined. 100% means all spider mites have been killed and 0% means none of the spider mites have been killed.

Rhipicephalus sanguineus = Rhipicephalus sanguineus in-vitro contact test, adult brown dog ticks (RHIPSA Contact); details: 5 μg/cm^2 (=500 g/ha), after 48 hours, read-out: activity (efficacy, ticks dead or moribund)
Summary of the method: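 Acetone solution coated onto glass tube walls; 900 ppm gives 5 μg/cm^2. After drying, 5-10 adult ticks per tube kept at room temperature for 48 h, then placed on a 45-50° C heating plate up to 5 min; ticks unable to climb away counted dead or moribund, efficacy as % affected.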

Myzus persicae [9] = assay: Myzus persicae spray test; details: foliar, 120 h, 100 g/ha, Chinese cabbage leaf disks, after 5 days
Description: Myzus persicae—Spray Test
as §8, §6, §7
Chinese cabbage (Brassica pekinensis) leaf disks infected with all instars of the green peach aphid (Myzus persicae), are sprayed with a preparation of the active ingredient of the desired concentration.
as §1

[10] = surface concentration 4 mg/m^2, glazed tile

SMILES	mortality at 100 g/ha (Spodoptera frugiperda)	mortality at 500 g/ha (Spodoptera frugiperda)	mortality at 100 ppm (Ctenocephalides felis [1])	mortality at 4 ppm (Myzus persicae [2])	pest or weed control at 5 µg/cm2 [3]	mortality at 20 mg/m2 [4]	mortality at 20 mg/m2 [5]	pest or weed control at 160 µg/disc, 500 g/ha (Diabrotica balteata)	pest or weed control at 0.004 mg (Boophilus microplus)	pest or weed control at 0.02 mg (Boophilus microplus)	pest or weed control at 5 µg/cm2, 5 µg/cm2 (Ctenocephalides felis [7])	mortality at 500 g/ha (Nilaparvata lugens)	pest or weed control at 100 g/ha (Diabrotica balteata)	pest or weed control at 5 µg/cm2, 5 µg/cm2 (Rhipicephalus sanguineus)	further results
C[C@H](Nc1nc2cc(C(F)(F)F)cc(C(F)(F)F)c2o1)c1ncnn1-c1ncccn1 [Example I-005]	100%	100%	100%	90%	100%	90 to 100%	90 to 100%	100%	100%	100%	100%				mortality at 20 mg/m2 [6]: 90 to 100%
Cc1cc2oc(N[C@@H](C)c3ncnn3-c3ncccn3)nc2cc1Br [Example I-007]			100%		100%							100%			
C[C@H](Nc1nc2ccccc2s1)c1ncnn1-c1ncccn1 [Example I-009]								80%				100%			
C[C@H](Nc1nc2cc(C(F)(F)F)c(Cl)cc2o1)c1ncnn1-c1ccc(C#N)cn1 [Example I-017]	100%	100%		90%	100%	90 to 100%	90 to 100%	100%	100%	100%	100%		100%		mortality at 4 mg/m2 [8, 10]: 90 to 100%; mortality at 20 mg/m2 ([8]; surface concentration 20 mg/m^2, glazed tile): 90 to 100%; mortality at 4 mg/m2 [4, 10]: 85 to 100%; mortality at 4 mg/m2 [5, 10]: 85 to 100%; mortality at 500 g/ha (Nezara viridula; 500 g/ha): 100%
C[C@H](Nc1nc2cc(C3CC3)cc(Cl)c2o1)c1ncnn1-c1ncccc1F [Example I-067, 7-Chlor-5-cyclopropyl-N-{(1S)-1-[1-(3-fluorpyridin-2-yl)-1H-1,2,4-triazol-5-yl]ethyl}-1,3-benzoxazol-2-amin]			80%					80%	100%	100%				80%	mortality at 500 g/ha (Tetranychus urticae; 500 g/ha): 90%
C[C@H](Nc1nc2cc(OC(F)(F)F)c(Cl)cc2o1)c1ncnn1-c1ncc(Br)cn1 [Example I-085, N-{(1S)-1-[1-(5-Brompyrimidin-2-yl)-1H-1,2,4-triazol-5-yl]ethyl}-6-chlor-5(trifluormethoxy)-1,3-benzoxazol-2-amin]	100%				100%						100%		100%	100%	mortality at 100 g/ha (Tetranychus urticae; 100 g/ha): 90%; mortality at 100 g/ha (Myzus persicae [9]): 90%; mortality at 100 g/ha (Nezara viridula; 100 g/ha): 100%
